Measurements from paper PMC10432207 (Heliyon, 2023).
In brackets after ≈: the same amount, converted by molar mass.

Target: Hyalomma scupense acetylcholinesterase (AChE)
Experiment: Ellman assay, absorbance at […] nm
Type: biochemical
Settings: acetylthiocholine iodide, DTNB, 10 min, 37 °C

Row | Structure (SMILES) | IC50 | IC50 (positive control)
1 | C=CCc1ccc(O)c(OC)c1 [eugenol] | 178 µg/mL (≈ 1080 µM) | –
2 | COc1ccc2c3c1O[C@H]1C[C@@H](O)C=C[C@@]31CCN(C)C2 [galantamine] | – | 97 µg/mL (≈ 338 µM)
